Test results taken from ChEMBL document CHEMBL1123992, “Benzo[1,2-c:5,4-c']dipyrazoles: non-xanthine adenosine antagonists” (J Med Chem, 1988).

What was measured:
[1] = species: Cavia porcellus; experiment: Reversal of spasmogen-induced contraction of guinea pig cylindrical tracheal segments induced by 5-hydroxytryptamine (2x 10e-6 M); type: functional; settings: Trachea, read-out: ED50 (the source's name)
[2] = molecular target: Adenosine A2 receptor (Homo sapiens, UniProt P29275+P29274); experiment: In vitro binding affinity to Adenosine A2 receptor of human platelets by inhibition of NECA-stimulated adenylate cyclase; type: functional
[3] = species: Cavia porcellus; experiment: Reversal of spasmogen-induced contraction of guinea pig cylindrical tracheal segments induced by histamine (1x […] -5 M); type: functional; settings: Trachea, read-out: ED50 (the source's name)
[4] = molecular target: T1, Adenosine receptor A1 (Rattus norvegicus, UniProt P25099); experiment: In vitro binding affinity to Adenosine A1 receptor of rat cerebral cortical membranes using 1 nM [3H]PIA
T1 sequence (P25099 whole entry): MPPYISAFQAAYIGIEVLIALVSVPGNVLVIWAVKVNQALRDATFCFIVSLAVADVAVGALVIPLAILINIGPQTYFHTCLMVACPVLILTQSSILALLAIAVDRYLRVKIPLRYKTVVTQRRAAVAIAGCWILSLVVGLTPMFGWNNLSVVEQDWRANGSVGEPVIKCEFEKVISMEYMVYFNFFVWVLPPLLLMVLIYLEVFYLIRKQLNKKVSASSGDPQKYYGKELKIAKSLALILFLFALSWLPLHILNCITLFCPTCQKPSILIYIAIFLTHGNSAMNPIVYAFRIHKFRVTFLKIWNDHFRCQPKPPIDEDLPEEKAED

[5] = species: Cavia porcellus; experiment: Reversal of spasmogen-induced contraction of guinea pig cylindrical tracheal segments induced by acetylcholine (1 x 10e -5 M); type: functional; settings: Trachea, read-out: ED50 (the source's name)
[6] = species: Cavia porcellus; experiment: Reversal of spasmogen-induced contraction of guinea pig cylindrical tracheal segments induced by Carbachol (7.4 x 10e -7 M); type: functional; settings: Trachea, read-out: ED50 (the source's name)
[7] = species: Cavia porcellus; experiment: Reversal of spasmogen-induced contraction of guinea pig cylindrical tracheal segments induced by histamine (1 x 10e -5 M); type: functional; settings: Trachea, read-out: ED50 (the source's name)
[8] = molecular target: Adenosine A2 receptor (Rattus norvegicus, UniProt P29276+P30543); experiment: Inhibition of adenosine stimulated accumulation of cyclic AMP at Adenosine A2 receptor of VA13 fibroblasts of rat; type: functional
[9] = molecular target: Adenosine A2 receptor (Cavia porcellus); experiment: Inhibition of 2-CADO-stimulated adenylate cyclase at Adenosine A2 receptor in guinea pig cerebral cortical slices
[10] = species: Cavia porcellus; experiment: Reversal of spasmogen-induced contraction of guinea pig cylindrical tracheal segments induced by acetylcholine (1*10e-5 M); type: functional; settings: Trachea, read-out: ED50 (the source's name)
[11] = species: Cavia porcellus; experiment: Reversal of spasmogen-induced contraction of guinea pig cylindrical tracheal segments induced by Carbachol (7.4x 10e-7 M); type: functional; settings: Trachea, read-out: ED50 (the source's name)
[12] = molecular target: T1, Adenosine receptor A1; experiment: Binding of 1 nM [3H]CHA to Adenosine A1 receptor of rat cerebral cortical membranes; type: cell membranes, Membrane

Row | Structure (SMILES) | EC50 [1] [µM] | Ki [2] [µM] | EC50 [3] [µM] | Ki [4] [µM] | EC50 [5] [µM] | further results
1 | Cc1n[nH]c2c([N+](=O)[O-])c3[nH]nc(C)c3cc12 | 1.5 | 14.4 | 6.4 | 1.9 | 25 | –
2 | Cc1nn(C)c2c(C)c3c(cc12)c(C)nn3C | 20 | 170 | 38 | 54 | – | EC50 [6]: 9.6 µM
3 | Cc1n[nH]c2c(Br)c3[nH]nc(C)c3cc12 | 0.9 | – | – | – | 2 | EC50 [7]: 3000 nM
4 | CCn1c(=O)c2nc[nH]c2n(CC)c1=O | – | – | – | – | – | Ki [8]: 1.2 µM; Ki [9]: 3 µM
5 | Cc1n[nH]c2c(C)c3[nH]nc(C)c3cc12 | 4.6 | 4.8 | 24 | 1.2 | 8.5 | –
6 | Cc1n[nH]c2cc3[nH]nc(C)c3cc12 | 2 | 25.6 | – | 8 | – | EC50 [10]: 4 µM; EC50 [7]: 1400 nM
7 | Cc1nn(C)c2cc3c(cc12)c(C)nn3C | 17 | 80 | 75 | > 100 | – | –
8 | CCn1nc(C)c2cc3c(C)nn(CC)c3cc21 | 1.3 | 56 | 5.2 | 27 | – | EC50 [6]: 11 µM
9 | CCCn1nc(C)c2cc3c(C)nn(CCC)c3cc21 | 13 | 32 | 41 | 10.5 | – | EC50 [6]: 69 µM
10 | CCn1nc(C)c2cc3c(C)nn(CC)c3c(C)c21 | – | 53 | 4.1 | 20 | 4.3 | EC50 [11]: 1000 nM
11 | Cn1c(=O)[nH]c2[nH]cnc2c1=O [1-METHYLXANTHINE] | – | – | – | – | – | Ki [8]: 6.6 µM; Ki [12]: 9 µM
12 | Cn1c(=O)c2[nH]cnc2n(C)c1=O [AMINOPHYLLINE] | 21 | – | 42 | – | 57 | –
13 | O=c1[nH]c(=O)c2nc[nH]c2[nH]1 [XANTHINE] | – | – | – | – | – | Ki [8]: 130 µM
